From patent US7592335B2, “Oxazolidinone derivatives as antimicrobials” (Ranbaxy Laboratories Limited, priority 2005, dated 2009)
Converted amounts (≈) assume the structure as drawn.

Columns and labels:
[1] = tested on: Haemophilus influenzae 49247; experiment: Haemophilus MIC, microbroth dilution method; assay type: cell-based; settings: H. influ. 49247, Mueller Hinton Broth cation adjusted + yeast extract + supplements
Method: (§1) The compounds of the invention display antibacterial activity when tested by the agar incorporation method. The following minimum inhibitory concentrations (μg/mL) were obtained for representative compound of the invention, which is given below in the following table.
The in vitro activity for Haemophilus MICs were performed by using Microbroth dilution method as follows: Media used: Mueller Hinton Broth (MHB-Difco)−Cation adjusted+5 grams per liter Yeast extract+supplements
Preparation of drug concentrations in 96 well microtitre plates were done as per the NCCLS method. Inoculum was prepared by direct colony suspensions in normal saline and adjusted to 1 McFarland turbidity and subsequently diluted in broth 100 times as per NCCLS guidelines in order to obtain 10^5 […].
(§2) The concentration showing no growth of the inoculated culture was recorded as the MIC. Appropriate ATCC standard strains were simultaneously tested and result recorded only when the MIC's against standard antibiotics were within the acceptable range.

[2] = tested on: Moraxella catarrhalis ATCC 8176; experiment: in vitro antibacterial activity, agar dilution MIC (MHA and 5% sheep blood); assay type: cell-based; settings: 18-24 hours
Method: as §1
(§3) Inoculum preparation for Streptococcus pneumoniae, Moraxella catarrhalis, Streptococcus pyogenes strains and the method of MIC is an agar dilution method with MHA (Mueller Hinton agar) and 5% sheep blood. Inoculum was prepared by direct colony suspension in normal saline solution and adjusting the turbidity to 1 Mcfarland and subsequently diluting as per NCCLS guidelines in order to obtain 10^4 CFU/ml. The plates were incubated in CO2 at 37° C. for 18-24 hours.
as §2

[3] = tested on: Streptococcus pyogenes ATCC 19615; experiment: as above; assay type: cell-based; settings: 18-24 hours
Method: as §1, §3, §2

[4] = tested on: Streptococcus pneumonia ATCC AB34; experiment: as above; assay type: cell-based, Streptococcus pneumoniae; settings: 18-24 hours
Method: as §1, §3, §2

[5] = tested on: Streptococcus pneumonia ATCC6303; experiment: as above; assay type: cell-based, Streptococcus pneumoniae; settings: 18-24 hours
Method: as §1, §3, §2

[6] = tested on: Staphylococcus aureus ATCC 25923; experiment: in vitro antibacterial activity, agar dilution MIC; assay type: cell-based; settings: 35±2° C.
Method: as §1
(§4) Briefly, the compounds were dissolved in dimethylsulphoxide and doubling dilution of the compounds was incorporated into Muller Hilton agar before solidification. Inoculum for staphylococcus aureus and Enterococus strain was prepared by direct colony suspension in normal saline solution and adjusting the turbidity to 0.5 Macfarland turbidity and subsequently diluting as per NCCLS guidelines in order to obtain 10^4 CFU/spot. CFU/mL of few randomly selected cultures was performed. The cultures were replicated on agar plate using Denley's multipoint replicator. The agar plates were incubated for 18 hours-24 hours (24 hours for MRSA studies) at 35±2° C. Q.C. strains were also included in each run of the study.
as §2

[7] = tested on: Vancomycin-resistant enterococci ATCC 6A; experiment: in vitro antibacterial activity, agar dilution MIC; assay type: cell-based; settings: VRE ATCC 6A, 18-24 hours, 35±2° C.
Method: as §1, §4, §2

[8] = tested on: Methicilline Resistant Staphylococcus aureus ATCC33; experiment: in vitro antibacterial activity, agar dilution MIC; assay type: cell-based; settings: 24 hours, 35±2° C.
Method: as §1, §4, §2

[9] = tested on: Enterococcus faecalis ATCC 29212; experiment: in vitro antibacterial activity, agar dilution MIC; assay type: cell-based; settings: 35±2° C.
Method: as §1, §4, §2

[10] = tested on: Methicilline Resistant Staphylococcus aureus ATCC562; experiment: in vitro antibacterial activity, agar dilution MIC; assay type: cell-based; settings: 24 hours, 35±2° C.
Method: as §1, §4, §2

[11] = tested on: Staphylococcus aureus ATCC 15187; experiment: in vitro antibacterial activity, agar dilution MIC; assay type: cell-based; settings: 35±2° C.
Method: as §1, §4, §2

Compound `CC(=O)NC[C@H]1CN(c2ccc(N3CCOCC3)c(F)c2)C(=O)O1` [Linezolid] has an MIC ([1]; Haemophilus influenzae, read-out: minimum inhibitory concentration, H. inf 49247) of 8 µg/mL, an MIC ([2]; Moraxella catarrhalis, ATCC8176, M. catt. ATCC 8176, CO2, 37° C., read-out: minimum inhibitory concentration, M. catt 8176) of 2 µg/mL (≈ 5.93 µM) and an MIC ([3]; Streptococcus pyogenes, ATCC19615, Strep. pyog. ATCC 19615, CO2, 37° C., read-out: minimum inhibitory concentration, S. pyogenes 19615) of 2 µg/mL (≈ 5.93 µM). The MIC ([4]; Streptococcus pneumoniae, ATCCAB34, S. pneum ATCC AB34, CO2, 37° C., read-out: minimum inhibitory concentration, S. pneum AB34) was 2 µg/mL (≈ 5.93 µM), the MIC ([5]; Streptococcus pneumoniae, S. pneum ATCC6303, CO2, 37° C., read-out: minimum inhibitory concentration, S. pneum 6303) was 1 µg/mL (≈ 2.96 µM) and the MIC ([6]; Staphylococcus aureus, ATCC25923, S. aureus ATCC 25923, 18-24 hours, read-out: minimum inhibitory concentration, S. aureus 25923) was 2 µg/mL (≈ 5.93 µM). The MIC ([7]; Enterococcus, read-out: minimum inhibitory concentration, VRE 6A) was 2 µg/mL (≈ 5.93 µM), the MIC ([8]; Staphylococcus aureus, ATCC 33 / MRSA, read-out: minimum inhibitory concentration, MRSA 33) was 2 µg/mL (≈ 5.93 µM) and the MIC ([9]; Enterococcus faecalis, ATCC29212, Ent. faecalis ATCC 29212, 18-24 hours, read-out: minimum inhibitory concentration, E. faecalis 29212) was 2 µg/mL (≈ 5.93 µM). The MIC ([10]; Staphylococcus aureus, ATCC 562 / MRSA, read-out: minimum inhibitory concentration, MRSA 562) was 2 µg/mL (≈ 5.93 µM) and the MIC ([11]; Staphylococcus aureus, ATCC15187, S. aureus ATCC 15187, 18-24 hours, read-out: minimum inhibitory concentration, S. aureus 15187) was 2 µg/mL (≈ 5.93 µM).

With `CC(=O)NCC1CN(c2ccc(N3CC4NCCOC4C3)c(F)c2)C(=O)O1` (stereo not shown) [Compound No. 05, N-[(3-{3-fluoro-4-[(7aE)-hexahydropyrrolo[3,4-b][1,4]oxazin-6(2H)-yl]phenyl}-2-oxo-1,3-oxazolidin-5-yl)methyl]acetamide] the “minimum inhibitory concentration, H. inf 49247” value [1] was 8 µg/mL, the “minimum inhibitory concentration, M. catt 8176” value ([2]; M. catt. ATCC 8176, CO2, 37° C.) was greater than 16 µg/mL and the “minimum inhibitory concentration, S. pyogenes 19615” value ([3]; Strep. pyog. ATCC 19615, CO2, 37° C.) was 2 µg/mL (≈ 5.29 µM). For the same compound, the “minimum inhibitory concentration, S. pneum AB34” value ([4]; CO2, 37° C.) was 2 µg/mL (≈ 5.29 µM), the “minimum inhibitory concentration, S. pneum 6303” value ([5]; CO2, 37° C.) was 2 µg/mL (≈ 5.29 µM) and the “minimum inhibitory concentration, S. aureus 25923” value ([6]; S. aureus ATCC 25923, 18-24 hours) was 8 µg/mL (≈ 21.1 µM). The “minimum inhibitory concentration, VRE 6A” value [7] was 2 µg/mL (≈ 5.29 µM), the “minimum inhibitory concentration, MRSA 33” value [8] was 4 µg/mL (≈ 10.6 µM) and the “minimum inhibitory concentration, E. faecalis 29212” value ([9]; Ent. faecalis ATCC 29212, 18-24 hours) was 2 µg/mL (≈ 5.29 µM). For the same compound, the “minimum inhibitory concentration, MRSA 562” value [10] was 4 µg/mL (≈ 10.6 µM) and the “minimum inhibitory concentration, S. aureus 15187” value ([11]; S. aureus ATCC 15187, 18-24 hours) was 8 µg/mL (≈ 21.1 µM).
